Source: US8759334B2, “Compounds useful for the treatment of metabolic and inflammatory diseases” (Galapagos NV, priority 2011, dated 2014)

The compounds below were run against T1, GPR43 (Homo sapiens, UniProt O15552) (assay: Calcium mobilization assay with probenecid). Settings: GPR43 stably expressing cells; triggered with sodium acetate at EC80; 2.5 mM probenecid; read-out: GPR43 assay with probenicid IC50.
T1 construct: expressed in transfected cells
T1 sequence (O15552 1-330): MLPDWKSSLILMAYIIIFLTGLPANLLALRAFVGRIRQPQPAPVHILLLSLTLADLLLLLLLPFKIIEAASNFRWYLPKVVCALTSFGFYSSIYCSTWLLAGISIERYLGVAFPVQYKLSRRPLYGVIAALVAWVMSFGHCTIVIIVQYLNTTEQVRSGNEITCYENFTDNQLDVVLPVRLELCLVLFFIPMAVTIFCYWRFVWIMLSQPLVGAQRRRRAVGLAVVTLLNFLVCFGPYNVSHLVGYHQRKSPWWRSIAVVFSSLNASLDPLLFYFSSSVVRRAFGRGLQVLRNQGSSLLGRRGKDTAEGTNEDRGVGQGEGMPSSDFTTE
Format: cell-based
Experimental: The following assay can be used for determination of GPR43 activation. The assay measures intracellular calcium release induced by activation of GPR43. On day 1, GPR43 stably expressing cells were detached with mild trypsinization (Trypsin, 0.25% with EDTA 4Na, 5× diluted in PBS) centrifuged at 1000 rpm for 5 min and resuspended at 6.000 cells/25 […] medium (DMEM supplemented with 10% FBS, 10 μg/mL puromycin and 1% Pen/Strep). The cells were distributed in poly-D-lysine coated 384 well plates (black with clear bottom, 25 μL/well) and incubated overnight at 37° C. 10% CO2.
On day 2, 25 μL of a fluorescent Ca^2+ indicator (Calcium 4 assay; Molecular Devices) supplemented with 2.5 mM probenecid was added on top of the cells and incubated for 2 h at 37° C. Subsequently, compounds at increasing concentration (10 μL/well) were added to the plate and incubated for 15 min at 37° C.
To measure agonist activity of the compounds, compound was added to the well and the Ca^2+-flux was measured simultaneously to the […] of compound.

Row | SMILES | IC50 [nM]
1 | Cc1cc(C)cc(CC(=O)N2CCC2(C)C(=O)N(Cc2ccc(Cl)cc2)Cc2nnc(O)o2)c1 (centres unmarked) [Compound 111, 1-[2-(3,5-Dimethyl-phenyl)-acetyl]-2-methyl-azetidine-2-carboxylic acid (4-chloro-benzyl)-(5-hydroxy-[1,3,4]oxadiazol-2-ylmethyl)-amide] | 501 to 1000
2 | CN(Cc1ccc(Cl)cc1)C(=O)C1(C)CCN1C(=O)c1ccc2sccc2c1 (centres unmarked) [Compound 112, 1-(Benzo[b]thiophene-5-carbonyl)-2-methyl-azetidine-2-carboxylic acid (4-chloro-benzyl) methyl-amide] | 501 to 1000
3 | Cc1cc(C)cc(CC(=O)N2CCC2(C)C(=O)N(Cc2ccc(Cl)cc2)Cc2noc(O)n2)c1 (centres unmarked) [Compound 114, 1-[2-(3,5-Dimethyl-phenyl)-acetyl]-2-methyl-azetidine-2-carboxylic acid (4-chloro-benzyl)-(5-hydroxy-[1,2,4]oxadiazol-3-ylmethyl)-amide] | 501 to 1000
4 | Cc1cc(C)cc(CC(=O)N2CCC2(C)C(=O)N(CCc2cc(O)[nH]n2)Cc2ccc(Cl)cc2)c1 (centres unmarked) [Compound 116, 1-[2-(3,5-Dimethyl-phenyl)-acetyl]-2-methyl-azetidine-2-carboxylic acid (4-chloro-benzyl)-[2-(5-hydroxy-1H-pyrazol-3-yl)-ethyl]-amide] | > 1000
5 | Cc1cc(C)cc(CC(=O)N2CCC2(C)C(=O)N(CCc2cc(O)n(C)n2)Cc2ccc(Cl)cc2)c1 (centres unmarked) [Compound 117, 1-[2-(3,5-Dimethyl-phenyl)-acetyl]-2-methyl-azetidine-2-carboxylic acid (4-chloro-benzyl)-[2-(5-hydroxy-1-methyl-1H-pyrazol-3-yl)-ethyl]-amide] | > 1000
6 | CCOc1cc(CCN(Cc2ccc(Cl)cc2)C(=O)C2(C)CCN2C(=O)Cc2cc(C)cc(C)c2)nn1C (centres unmarked) [Compound 118, 1-[2-(3,5-Dimethyl-phenyl)-acetyl]-2-methyl-azetidine-2-carboxylic acid (4-chloro-benzyl)-[2-(5-ethoxy-1-methyl-1H-pyrazol-3-yl)-ethyl]-amide] | > 1000
7 | Cc1cc(C)cc(CC(=O)N2CCC2(C)C(=O)N(CCc2nnc(O)o2)Cc2ccc(Cl)cc2)c1 (centres unmarked) [Compound 119, 1-[2-(3,5-Dimethyl-phenyl)-acetyl]-2-methyl-azetidine-2-carboxylic acid (4-chloro-benzyl)-[2-(5-hydroxy-[1,3,4]oxadiazol-2-yl)-ethyl]-amide] | > 1000
8 | CCOc1cc(CCN(Cc2ccc(Cl)cc2)C(=O)C2(C)CCN2C(=O)Cc2cc(C)cc(C)c2)n[nH]1 (centres unmarked) [Compound 120, 1-[2-(3,5-Dimethyl-phenyl)-acetyl]-2-methyl-azetidine-2-carboxylic acid (4-chloro-benzyl)-[2-(5-ethoxy-1H-pyrazol-3-yl)-ethyl]-amide] | > 1000
9 | CN(Cc1ccc(Cl)cc1)C(=O)C1(C)CCN1C(=O)c1ccc2occc2c1 (centres unmarked) [Compound 121, 1-(benzofuran-5-carbonyl)-N-(4-chlorobenzyl)-N,2-dimethylazetidine-2-carboxamide] | > 1000
10 | Cc1cc(C)cc(CC(=O)N2CCC2(C)C(=O)N(CCCC(=O)N2CCN(C)CC2)Cc2ccc(Cl)cc2)c1 (centres unmarked) [Compound 124, 1-[2-(3,5-Dimethyl-phenyl)-acetyl]-2-methyl-azetidine-2-carboxylic acid (4-chloro-benzyl)-[4-(4-methyl-piperazin-1-yl)-4-oxo-butyl]-amide] | 501 to 1000
11 | Cc1cc(C)cc(CC(=O)N2CCC2(C)C(=O)N(CCCC(=O)N(C)C)Cc2ccc(Cl)cc2)c1 (centres unmarked) [Compound 125, 1-[2-(3,5-Dimethyl-phenyl)-acetyl]-2-methyl-azetidine-2-carboxylic acid (4-chloro-benzyl)-(3-dimethylcarbamoyl-propyl)-amide] | > 1000
12 | CN(Cc1ccc(Cl)cc1)C(=O)C1(C)CCN1C(=O)c1ccc2ccccc2c1 (centres unmarked) [Compound 126, 1-(2-naphthoyl)-N-(4-chlorobenzyl)-N,2-dimethylazetidine-2-carboxamide] | > 1000
13 | CC1(C(=O)N(CCCC(N)=O)Cc2ccc(Cl)cc2)CCN1C(=O)Cc1csc2ccccc12 (centres unmarked) [Compound 127, 1-(2-Benzo[b]thiophen-3-yl-acetyl)-2-methyl-azetidine-2-carboxylic acid (3-carbamoyl-propyl)-(4-chloro-benzyl)-amide] | > 1000
14 | CC1(C(=O)N(CCCC(=O)N2CCOCC2)Cc2ccc(Cl)cc2)CCN1C(=O)Cc1csc2ccccc12 (centres unmarked) [Compound 129, 1-(2-Benzo[b]thiophen-3-yl-acetyl)-2-methyl-azetidine-2-carboxylic acid (4-chloro-benzyl)-(4-morpholin-4-yl-4-oxo-butyl)-amide] | 0.01 to 100
15 | Cc1cc(C)cc(CC(=O)N2CCC2(C)C(=O)N(Cc2ccc(Cl)cc2)Cc2cc(O)[nH]n2)c1 (centres unmarked) [Compound 133, 1-[2-(3,5-Dimethyl-phenyl)-acetyl]-2-methyl-azetidine-2-carboxylic acid (4-chloro-benzyl)-(5-hydroxy-1H-pyrazol-3-ylmethyl)-amide] | 0.01 to 100
16 | CC1(C(=O)N(CCCC(=O)O)Cc2ccc(Cl)cc2)CCN1C(=O)c1ccc2sccc2c1 (centres unmarked) [Compound 135, 4-[[1-(Benzo[b]thiophene-5-carbonyl)-2-methyl-azetidine-2-carbonyl]-(4-chloro-benzyl)-amino]-butyric acid] | 501 to 1000
17 | CC1(C(=O)N(CCCC(=O)O)Cc2ccc(Cl)cc2)CCN1C(=O)Cc1cccc2sccc12 (centres unmarked) [Compound 136, 4-[[1-(2-Benzo[b]thiophen-4-yl-acetyl)-2-methylazetidine-2-carbonyl]-(4-chloro-benzyl)-amino]-butyric acid] | 101 to 500
18 | CC1(C(=O)N(CCCC(=O)N2CCOCC2)Cc2ccc(Cl)cc2)CCN1C(=O)c1ccc2sccc2c1 (centres unmarked) [Compound 138, 1-(benzo[b]thiophene-5-carbonyl)-N-(4-chlorobenzyl)-2-methyl-N-(4-morpholino-4-oxobutyl)azetidine-2-carboxamide] | > 1000
19 | CC1(C(=O)N(CCCC(=O)N2CCOCC2)Cc2ccc(Cl)cc2)CCN1C(=O)c1csc2ccccc12 (centres unmarked) [Compound 139, 1-(benzo[b]thiophene-3-carbonyl)-N-(4-chlorobenzyl)-2-methyl-N-(4-morpholino-4-oxobutyl)azetidine-2-carboxamide] | > 1000
20 | CC1(C(=O)N(CCCC(=O)N2CCOCC2)Cc2ccc(Cl)cc2)CCN1C(=O)Cc1coc2ccccc12 (centres unmarked) [Compound 140, 1-(2-Benzofuran-3-yl-acetyl)-2-methyl-azetidine-2-carboxylic acid (4-chloro-benzyl)-(4-morpholin-4-yl-4-oxo-butyl)-amide] | > 1000
21 | CCOC(=O)CCCN(Cc1ccc(C(F)(F)F)cc1)C(=O)C1(C)CCN1C(=O)c1csc2ccccc12 (centres unmarked) [Compound 141, ethyl 4-(1-(benzo[b]thiophene-3-carbonyl)-2-methyl-N-(4-(trifluoromethyl)benzyl)azetidine-2-carboxamido)butanoate] | > 1000
22 | CCOC(=O)CCCN(Cc1ccc(C(F)(F)F)cc1)C(=O)C1(C)CCN1C(=O)Cc1csc2ccccc12 (centres unmarked) [Compound 142, 4-[[1-(2-Benzo[b]thiophen-3-yl-acetyl)-2-methyl-azetidine-2-carbonyl]-(4-trifluoromethyl-benzyl)-amino]-butyric acid ethyl ester] | > 1000
23 | CCOC(=O)CCCN(Cc1cccc(Cl)c1)C(=O)C1(C)CCN1C(=O)c1csc2ccccc12 (centres unmarked) [Compound 143, ethyl 4-(1-(benzo[b]thiophene-3-carbonyl)-N-(3-chlorobenzyl)-2-methylazetidine-2-carboxamido)butanoate] | > 1000
